# In paper PMC11066871 (Journal of the American Chemical Society, 2024):
# Legend:
# anti-pS2 antibody 2G1 [1] = assay: Indirect ELISA, relative binding at single antibody dilution; parameters: species or system rabbit; details: immobilized peptide
# Description: (§1) To allow rapid screening, the His6-tagged CTD peptides were immobilized onto Ni^2+-coated 96-well microtiter plates. The immobilized peptides were incubated with increasing concentrations of the anti-pS2 antibody E1Z3G. […] Next, positional scanning was performed with anti-pS2 antibodies EPR18855 (Abcam) and 2G1 (Thermo Fisher/Invitrogen). Here, and in subsequent experiments, we refrained from obtaining titration curves and instead determined the fold change of antibody binding relative to that of a reference binder (Figure 4B).
# (§2) Figure 4 (A) Titration of the E1Z3G primary antibody to immobilized hexaheptade peptides. […] (C) Probing chelate and cluster effects upon binding of EPR18855, 2G1, and E1Z3G mAbs to hexaheptad peptides containing two or six pSer2 residues. […] 100 μL of TMB–H2O2 solution (1:1), 20 min, 25 °C, ii. 100 μL of 2 M H2SO4, 1 min, 25 °C. Washes and dilution of the antibodies were performed with NaH2PO4, 200 mM BSA (1% w/v), and 0.05% Tween-20 at pH 7.4. Assays were performed in triplicate with randomized positions of probes or antibodies.
# (§3) A stock solution in immobilization buffer (NaH2PO4 200 mM, pH 7.4 ) was prepared for every test peptide. The […]
# (§4) withdrawn and diluted step w ise with immobilization buffer from high µM range to 300 nM. Stock solution s an d sample s w ere stored at - 8 0°C.
# (§5) - Thawing o f all the sampl es at room temperature for 30 min utes. The samples were quickly centrifuged and carefully mi xed before being used.
# (§6) - Plating of the samples (100 µl) into a black non-binding 96-well plate that was previously conditioned overnight with wash buffer (NaH2PO4 200 mM, BS A 1% w/ v, Tween -20 0. 05%, pH 7. 4) and washed 3 times with the immobilization buffer.
# (§7) - Sample s wer e transferred wit h a multi-channel pip ette to the clear Ni2+-coated 96 -well p late. Thi s plate-to-plate transfer provided full control of the timing of the Ni2+ -His6 interaction.
# (§8) - Incubation for one hour at 25°C.
# (§9) - Preparation of the primary antibody dilutions from the stock and then subsequent serial dilutions using […]
# (§10) - Wash ing the plate 5 tim es for one minute with wa sh buffer (200 µl) .
# (§11) - Plating of the primary antibody (100 µl) and incubation of the primary antibody for 1 hour at 37°C.
# (§12) - Preparation of the dilution and plating (100 µl) of the secon dary antibody.
# (§13) - Incubation for 30 minutes at 37°C.
# (§14) - Wash ing the plate 5 times for one minute with wa sh buffer (200 µl) .
# (§15) - Plating of the freshly prepared TMB-H 2O2 solution (1:1, 10 0 µl) .
# (§16) - TMB solution incubation for 20 minutes at 25 °C.
# (§17) - Plating of the Stop solution (2 M H2SO4, 1 00 µL).
# (§18) - Incubation at 25°C for 1 minute.
# (§19) - Plate reading at 450 nm, nor mal aperture, 1 second as m e asurem ent time . […]
# (§20) for the primary and secondary antibodies. The average value of the optical density of the blanks was subtracted from the OD of the analyte s in the s ame plate befor e data analysi s. All the e xperi ments have be en perfor med a s biologi cal triplicate unless otherwise stated. […]
# (§21) in each triplicate to provide randomization on the plate. […]
# (§22) - Relative affinity mea suremen ts: 3 serial dilutions o f the pri mary mAbs wer e used in the experi ment fro m […]
# (§23) nM). The relati ve binding valu es wer e g enerated by dividing the OD value for each probe by the OD value of the referenc e peptide tested in the sa me plat e, with th e sa me conditions. […]
# [2] = tested on: anti-pS2 antibody EPR18855; assay: as above; parameters: species or system rabbit; details: immobilized peptide
# Description: as §1, §2, §3, §4, §5, §6, §7, §8, §9, §10, §11, §12, §13, §14, §15, §16, §17, §18, §19, §20, §21, §22, §23
# anti-pS2 antibody E1Z3G [3] = assay: as above; parameters: species or system rabbit; details: immobilized peptide
# Description: as §1, §2, §3, §4, §5, §6, §7, §8, §9, §10, §11, §12, §13, §14, §15, §16, §17, §18, §19, §20, §21, §22, §23
# anti-pS2 antibody 2G1 [4] = assay: Competitive ELISA with immobilized phosphopeptide 35; format: binding, rabbit; details: for LogIC50, best-fit value (Table S4, 2G1): log10 of competitor concentration, One site-Fit logIC50; for competition against immobilized peptide 35 for antibody binding (in words): peptide in solution, increasing concentrations
# Description: (§24) The 100% binding value refers to binding of antibody to immobilized 35 in the absence of competitor.
# as §3, §4, §5, §6, §7, §8, §9, §10, §11, §12, §13, §14, §15, §16, §17, §18, §19, §20, §21
# (§25) After the incubation time and the wash, the seri es of dilutions ( 300, 100, 50, 25, 1 2.5, 6.2 5, 2. 1 and 0.7 nM) of the co mpetit ors wa s plated, all […]
# (§26) the samples in half the volu me (50 µL) and double the concentration. Incubation for 5 minutes at 25°C.
# (§27) Plating of the primary antibody in half the volume (50 µL) and double the concentration. The final volume in each well was 100 µL, and the final concentration of the primary antibody was 1:1000. On the same plate, a highly concentrated sample of each competitor (1.2 µM) was also plated to evaluate p ossible unspecific
# anti-pS2 antibody E1Z3G [5] = assay: as above; format: binding, rabbit; details: for LogIC50, best-fit value (Table S4, E1Z3G): log10 of competitor concentration, One site-Fit logIC50; for competition against immobilized peptide 35 for antibody binding (in words): peptide in solution, increasing concentrations
# Description: as §24, §3, §4, §5, §6, §7, §8, §9, §10, §11, §12, §13, §14, §15, §16, §17, §18, §19, §20, §21, §25, §26, §27
# [6] = tested on: anti-pS2 antibody EPR18855; assay: as above; format: binding, rabbit; details: for LogIC50, best-fit value (Table S4, EPR18855): log10 of competitor concentration, One site-Fit logIC50; for competition against immobilized peptide 35 for antibody binding (in words): peptide in solution, increasing concentrations
# Description: as §24, §3, §4, §5, §6, §7, §8, §9, §10, §11, §12, §13, §14, §15, §16, §17, §18, §19, §20, §21, §25, §26, §27
substance,measurement,setting,value
"H6-NH-(CH2)2-PEG6-CO-YSPTSPS-YpSPTSPS-(YSPTSPS)4-YAPTSPS-(YSPTSPS)-YpSPTSPS-(YSPTSPS)3 [compound 27, dodecaheptad CTD peptide, pSer2 in heptads 2 and 9]",recognition by 2G1 (in words),anti-pS2 antibody 2G1 [1],remained at the level of the monovalent phosphopeptide
same,recognition by EPR18855 (in words),[2],remained at the level of the monovalent phosphopeptide
"HHHHHH-NH-(CH2)2-(OCH2CH2)6-CO-YpSPTSPS-YpSPTSPS-YpSPTSPS-YpSPTSPS-YpSPTSPS-YpSPTSPS-NH2 [compound 7, His6-PEG6 hexaheptad CTD peptide, hexa-pSer2]",recognition by 2G1 (in words),anti-pS2 antibody 2G1 [1],did not enhance binding
same,binding enhancement of E1Z3G relative to 35,anti-pS2 antibody E1Z3G [3],5 fold
same,recognition by EPR18855 (in words),[2],did not enhance binding
"Ac- YSPTSPS YSPTSPS YSPTSPS YSPTSPS YSPTSPS YSPTSPS -NH2 [compound 4, Ac-hexaheptad CTD peptide amide phosphorylated at each Ser5]","LogIC50, best-fit value (Table S4, 2G1)",anti-pS2 antibody 2G1 [4],7.562
same,competition against immobilized peptide 35 for antibody binding (in words),anti-pS2 antibody 2G1 [4],not able to compete
same,"LogIC50, best-fit value (Table S4, E1Z3G)",anti-pS2 antibody E1Z3G [5],~ -3.629
same,competition against immobilized peptide 35 for antibody binding (in words),anti-pS2 antibody E1Z3G [5],not able to compete
same,"LogIC50, best-fit value (Table S4, EPR18855)",[6],1.287
same,competition against immobilized peptide 35 for antibody binding (in words),[6],not able to compete
"H6-NH-(CH2)2-PEG6-CO-YSPTSPS-YpSPTSPS-(YSPTSPS)4-YAPTSPS-(YSPTSPS)2-YpSPTSPS-(YSPTSPS)2 [compound 28, dodecaheptad CTD peptide, pSer2 in heptads 2 and 10]",recognition by 2G1 (in words),anti-pS2 antibody 2G1 [1],remained at the level of the monovalent phosphopeptide
same,recognition by EPR18855 (in words),[2],remained at the level of the monovalent phosphopeptide
"Ac- YSPTSPS YSPTSPS YSPTSPS YSPTSPS YSPTSPS YSPTSPS -NH2 [compound 3, Ac-hexaheptad CTD peptide amide phosphorylated at each Thr4]","LogIC50, best-fit value (Table S4, 2G1)",anti-pS2 antibody 2G1 [4],~ 8.143
same,competition against immobilized peptide 35 for antibody binding (in words),anti-pS2 antibody 2G1 [4],not able to compete
same,"LogIC50, best-fit value (Table S4, E1Z3G)",anti-pS2 antibody E1Z3G [5],-5.866
same,competition against immobilized peptide 35 for antibody binding (in words),anti-pS2 antibody E1Z3G [5],not able to compete
same,"LogIC50, best-fit value (Table S4, EPR18855)",[6],8.303
same,competition against immobilized peptide 35 for antibody binding (in words),[6],not able to compete
